Activity calls are given as the source filed them. The calls are words filed in the database; no cut-off is given here.
Columns and labels:
[1] = Cytotoxicity against human HepG2 cells assessed as cell viability at 5 uM after 48 hrs by MTT assay relative to control; type: cell-based; settings: read-out: Activity
[2] = target: T1, Protein O-GlcNAcase (Mus musculus) (UniProt Q9EQQ9); experiment: Inhibition of OGA in mouse NIH/3T3 cells assessed as increase in O-GlcNAcylation at 20 uM after 24 hrs by Western blot analysis; type: cell-based
T1 sequence (whole entry): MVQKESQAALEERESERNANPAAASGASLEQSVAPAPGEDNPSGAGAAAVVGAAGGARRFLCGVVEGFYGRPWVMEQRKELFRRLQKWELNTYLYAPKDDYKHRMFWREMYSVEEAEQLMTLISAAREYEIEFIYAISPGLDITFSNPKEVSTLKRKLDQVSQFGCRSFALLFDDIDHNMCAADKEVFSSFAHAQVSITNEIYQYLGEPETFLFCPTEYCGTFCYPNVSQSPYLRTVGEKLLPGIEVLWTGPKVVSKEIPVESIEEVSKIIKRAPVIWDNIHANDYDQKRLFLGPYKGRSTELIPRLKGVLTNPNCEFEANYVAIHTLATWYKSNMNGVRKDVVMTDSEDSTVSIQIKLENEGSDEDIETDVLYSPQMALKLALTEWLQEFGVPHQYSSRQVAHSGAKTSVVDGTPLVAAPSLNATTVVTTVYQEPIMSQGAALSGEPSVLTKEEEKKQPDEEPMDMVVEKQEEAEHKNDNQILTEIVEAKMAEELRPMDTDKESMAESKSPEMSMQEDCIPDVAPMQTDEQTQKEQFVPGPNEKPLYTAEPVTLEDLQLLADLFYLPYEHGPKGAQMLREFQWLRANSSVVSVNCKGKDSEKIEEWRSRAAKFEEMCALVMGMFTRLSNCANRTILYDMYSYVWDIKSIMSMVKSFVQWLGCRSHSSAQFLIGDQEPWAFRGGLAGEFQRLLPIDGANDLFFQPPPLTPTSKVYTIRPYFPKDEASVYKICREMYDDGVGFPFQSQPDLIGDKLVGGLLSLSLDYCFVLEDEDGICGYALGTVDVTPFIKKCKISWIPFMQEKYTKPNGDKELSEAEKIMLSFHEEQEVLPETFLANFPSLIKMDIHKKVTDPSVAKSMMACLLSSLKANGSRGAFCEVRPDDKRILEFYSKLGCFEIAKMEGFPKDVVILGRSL

[3] = Cytotoxicity against human HeLa cells assessed as cell viability at 50 uM after 48 hrs by MTT assay relative to control; type: cell-based; settings: read-out: Activity
[4] = Cytotoxicity against human MCF7 cells assessed as cell viability at 10 uM after 48 hrs by MTT assay relative to control; type: cell-based; settings: read-out: Activity
[5] = Cytotoxicity against human HeLa cells assessed as cell viability at 5 uM after 48 hrs by MTT assay relative to control; type: cell-based; settings: read-out: Activity
[6] = Cytotoxicity against mouse NIH/3T3 cells assessed as cell viability at 10 uM after 48 hrs by MTT assay relative to control; type: cell-based, NIH3T3; settings: read-out: Activity
[7] = Cytotoxicity against human MCF7 cells assessed as cell viability at 5 uM after 48 hrs by MTT assay relative to control; type: cell-based; settings: read-out: Activity
[8] = Cytotoxicity against mouse NIH/3T3 cells assessed as cell viability at 5 uM after 48 hrs by MTT assay relative to control; type: cell-based, NIH3T3; settings: read-out: Activity
[9] = Cytotoxicity against human HepG2 cells assessed as cell viability at 20 uM after 48 hrs by MTT assay relative to control; type: cell-based; settings: read-out: Activity
[10] = Cytotoxicity against human MCF7 cells assessed as cell viability at 20 uM after 48 hrs by MTT assay relative to control; type: cell-based; settings: read-out: Activity
[11] = Cytotoxicity against mouse NIH/3T3 cells assessed as cell viability at 50 uM after 48 hrs by MTT assay relative to control; type: cell-based, NIH3T3; settings: read-out: Activity
[12] = Cytotoxicity against human HeLa cells assessed as cell viability at 20 uM after 48 hrs by MTT assay relative to control; type: cell-based; settings: read-out: Activity
[13] = Cytotoxicity against human MCF7 cells assessed as cell viability at 100 uM after 48 hrs by MTT assay relative to control; type: cell-based; settings: read-out: Activity
[14] = Cytotoxicity against human HepG2 cells assessed as cell viability at 10 uM after 48 hrs by MTT assay relative to control; type: cell-based; settings: read-out: Activity
Mus musculus = species on record: Mus musculus; experiment: Modulation of OGT/OGA in mouse NIH/3T3 cells assessed as increase in O-GlcNAcylation at 5 to 100 uM by Western blot analysis; type: cell-based
[15] = Cytotoxicity against human HeLa cells assessed as cell viability at 10 uM after 48 hrs by MTT assay relative to control; type: cell-based; settings: read-out: Activity
[16] = Cytotoxicity against human MCF7 cells assessed as cell viability at 50 uM after 48 hrs by MTT assay relative to control; type: cell-based; settings: read-out: Activity
[17] = Cytotoxicity against mouse NIH/3T3 cells assessed as cell viability at 20 uM after 48 hrs by MTT assay relative to control; type: cell-based, NIH3T3; settings: read-out: Activity
[18] = Cytotoxicity against human HepG2 cells assessed as cell viability at 100 uM after 48 hrs by MTT assay relative to control; type: cell-based; settings: read-out: Activity
[19] = Cytotoxicity against human HeLa cells assessed as cell viability at 100 uM after 48 hrs by MTT assay relative to control; type: cell-based; settings: read-out: Activity
[20] = Cytotoxicity against mouse NIH/3T3 cells assessed as cell viability at 100 uM after 48 hrs by MTT assay relative to control; type: cell-based, NIH3T3; settings: read-out: Activity
[21] = Cytotoxicity against human HepG2 cells assessed as cell viability at 50 uM after 48 hrs by MTT assay relative to control; type: cell-based; settings: read-out: Activity
[22] = Inhibition of lysosomal hexosaminidase (unknown origin); set-up: species or system Homo sapiens

In the case of `CC(=O)OC[C@H]1OC(OC(C)=O)[C@H](NC(=O)C(F)(F)F)[C@@H](OC(C)=O)[C@@H]1OC(C)=O` (stereo not given in full), the viability at 48 h, 5 µM [1] is reported as 96.9%, the inhibition [2] is reported as “Active” and the viability at 48 h, 50 µM [3] is reported as 84.1%. It also gave a viability at 48 h, 10 µM [4] of 97.4%, a viability at 48 h, 5 µM [5] of 101% and a viability at 48 h, 10 µM [6] of 94.1%. The viability at 48 h, 5 µM [7] was 98.3%, the viability at 48 h, 5 µM [8] was 97.6% and the viability at 48 h, 20 µM [9] was 94.2%. It also gave a viability at 48 h, 20 µM [10] of 97.1%, a viability at 48 h, 50 µM [11] of 61.3% and a viability at 48 h, 20 µM [12] of 96%. For the same molecule, the viability at 48 h, 100 µM [13] was 90.5%, the viability at 48 h, 10 µM [14] was 94.7% and the Activity (Mus musculus) was “Active”. For the same molecule, the viability at 48 h, 10 µM [15] was 96.2%, the viability at 48 h, 50 µM [16] was 96.4% and the viability at 48 h, 20 µM [17] was 85.6%. The viability at 48 h, 100 µM [18] was 84.9%, the viability at 48 h, 100 µM [19] was 76.1% and the viability at 48 h, 100 µM [20] was 35.9%. For the same molecule, the viability at 48 h, 50 µM [21] was 91.2%.
For `CCNC1=N[C@@H]2[C@@H](O)[C@H](O)[C@@H](CO)O[C@@H]2S1`, the inhibition [2] was “Active”.
For `CC(=O)N[C@H]1/C(=N/OC(=O)Nc2ccccc2)O[C@H](CO)[C@@H](O)[C@@H]1O` [PUGNAC], the inhibition [2] was “Active” and the Ki [22] was 0.03 to 0.04 µM.

Reference: ChEMBL document CHEMBL4422670, “Ac4GlcNAcF3, an OGT-tolerated but OGA-resistant regulator for O-GlcNAcylation” (Bioorg Med Chem Lett, 2019)
